Test results reported in patent US9090617B1, “Agonists of Src homology-2 containing protein tyrosine phosphatase-1 and treatment methods using the same” (National Taiwan University, priority 2011, dated 2015).
Entries after “also recorded” stand apart in the source; their conditions may differ. Read-outs that look alike come from different tables or passages of the source.

How the values were obtained:
PLC5 cells = test: MTT assay for cell growth inhibition in PLC5 cells; format: cell-based
Protocol: These compounds were analyzed by MTT assay for cell growth inhibition in the PLC5 cells.
Next, we changed the pyridine to a quinoline ring and amide linker to generate compounds 12-25. These compounds were also analyzed by MTT assay for cell growth inhibition in the PLC5 cells.

Raf-1 = target: T1, Raf-1 (Homo sapiens, UniProt P04049); test: Raf-1 kinase activity in lysates of treated cells; format: cell-based
T1 construct: Raf-1 immunoprecipitated from PLC5 cell extracts was incubated with MEK recombinant protein; endogenous in cells; host or cells: PLC5
Excerpt: (§1) The RediPlate 96 EnzChek® Tyrosine Phosphatase Assay Kit (R-22067) was used for SHP-1 activity assay (Molecular Probes, Carlsbad, Calif.). The Raf-1 kinase cascade assay kit (Upstate-Millipore, Billerica, Mass.) was used to examine the Raf-1 kinase activity. The JAK2 kinase activity kit was purchased from Reaction Biology Corp. (Malvern, Pa.).

phospho-STAT3 (Tyr705) = test: Phospho-STAT3 (Tyr705) sandwich ELISA; format: cell-based; conditions: for activity of p-STAT3 by STAT3 ELISA: Sk-Hep1 cells pre-treated with IL-6, 24 h
Protocol: A PathScan Phospho-Stat3 (Tyr705) Sandwich ELISA Kit was used for the detection of phospho-STAT3 (Cell Signaling, Danvers, Mass.). Cells were pre-treated with IL-6 1 ng/ml and then exposed with various compounds at 10 μM for 24 h. After incubation with cell lysates, both non-phospho- and phospho-Stat3 proteins are captured by the coated antibody. The expression of phospho-STAT3 was measured at 450 nm absorbance.
The decreased level of P-STAT3 induced by these derivatives was correlated with cell toxicity. In the other words, these derivatives induced cell death in part through inhibition of STAT3.
We also assayed the activation status of p-STAT3 by STAT3 ELISA. […] SC-1 or sorafenib-treated cell extracts were incubated with antibody against phosphorylated STAT3 at Y705. […] To evaluate the transcriptional activity, STAT3-binding region was cloned into Luc reporter. […] The firefly luciferase activity was evaluated and normalized by Renilla luciferase.
p-STAT3 activity: PLC5 cells treated with SC derivatives were collected in RIPA buffer and analyzed in p-STAT3 ELISA kit. The assay protocol follows the manufacturer.

[1] = test system: p-STAT3, cyclin D1, survivin, Mc1-1; test: Western blot of STAT3-related proteins in HCC cells; format: cell-based; conditions: HCC cells, 24 h
Protocol: Cells were treated with various compounds at 5 and 10 μM for 24 h. Cell lysates were analyzed by western blot.
HCC cells treated with SC-43 (10 μM for 24 h) were collected with RIPA lysis buffer. Antibodies for immunoblotting such as cyclin D1 was purchased from Santa Cruz Biotechnology. Other antibodies such as survivin, phospho-STAT3 (Tyr705), STAT3, Mc1-1, SOCS1, and SOCS3 were from Cell Signaling.

JAK2 = target: T2, JAK2 (Homo sapiens, UniProt O60674); test: JAK2 kinase activity; format: cell-based; conditions: PLC5 cells, 10 μM, 24 h
T2 construct: endogenous in cells; host or cells: PLC5
Excerpt: as §1

Huh-7 tumors = test system: Huh-7 tumors
Protocol: Male NCr athymic nude mice (5-7 weeks of age) were obtained from the National Laboratory Animal Center (Taipei, Taiwan). All experimental procedures using these mice were performed in accordance with protocols approved by National Taiwan University. […] Controls received vehicle (Chen K F et al. Cancer Res. 2008; 68:6698-6707).

HCC cells [2] = test: cells
Excerpt: Points, mean; bars, SD (n=6).
Points, mean; bars, SD ([…]). […] The N-SH2 domain is in orange, the C-SH2 domain is in marine, the PTP domain is in hot pink, and the linkers between them are in gray. […] ELISA, enzyme-linked immunosorbent assay.

HCC cells [3] = test: Apoptosis analysis by flow cytometry (sub-G1); format: cell-based; conditions: HCC cells, 24 h
Protocol: Apoptotic cells were measured by flow cytometry (sub-G1). After treatment with various compounds, cells were trypsinized, collected by centrifugation and resuspended in PBS. After centrifugation, the cells were washed in PBS and resuspended in […] (PI) staining solution. Specimens were incubated in the dark for 30 min at 37° C. and then analyzed with an EPICS Profile II flow cytometer (Coulter Corp., Hialeah, Fla.). All experiments were performed in triplicate
Collected cells were fixed in 75% Ethanol and stained with 20 ug/ml Propidium Iodide (PI). Sub-G1 analysis was performed by flow-cytometry. […] Points, mean; bars, SD (n=6).

STAT3 = STAT3 luciferase reporter assay; format: cell-based; conditions: 10 μM, 24 h
Protocol: Cells were seeded in 96-well plate and pre-treated with IL-6 at the dose […] for 30 min. The STAT3 reporter kit was purchased from SABiosciences (Frederick, Md.).
STAT3 reporter assay: PLC5 cells were seeded in a 96-well plate. Cells were pretransfected with STAT3 reporter construct for 24 h and treated with derivatives for another 24 h. The STAT3 Reporter Kit was purchased from SABiosciences.

[4] = test system: MDAMB231, MDAMB468, MCF-7, HL-60, KG-1 and ML-1; test: Anti-proliferation in breast cancer and leukemia cell lines; format: cell-based; conditions: MDAMB231, MDAMB468, MCF-7, HL-60, KG-1, ML-1
Protocol: The Huh-7 HCC cell line was obtained from the Health Science Research Resources Bank (Osaka, Japan; JCRB0403). The PLC/PRF/5 (PLC5), Sk-Hep-1, and Hep3B cell lines were obtained from American Type Culture Collection (Manassas, Va.). The cells were maintained in DMEM supplemented with 10% FBS, 100 units/mL penicillin G, 100 μg/mL streptomycin sulfate and 25 μg/mL amphotericin B in a 37° C. humidified incubator in an atmosphere of 5% CO2 in air. Other cell lines, including breast cancer cells e.g. MDAMB231, MDAMB468, MCF-7, and leukemia cancer cells e.g. HL-60, KG-1 and ML-1 are also provided for the assays described below.
We also examed the effects of SC-1 and SC-43 in other cancer cell lines, including breast cancer cell lines e.g. MDAMB231, MDAMB468, MCF-7, and leukemia cancer cell lines e.g. HL-60, KG-1 and ML-1.

SHP-1 = SHP-1 (Homo sapiens, UniProt P29350); test: Phosphatase activity of SHP-1 immunoprecipitated from PLC5 cells, incubated with compound in vitro; format: biochemical; parameters: PLC5 protein extract was incubated with anti-SHP-1 antibody in immunoprecipitation buffer overnight; endogenous in cells; host or cells: PLC5 (PLC/PRF/5); conditions: PLC5 lysates, incubated 6 hours
Protocol: PLC5 protein extract was incubated with anti-SHP-1 antibody in immunoprecipitation buffer overnight. Protein G Sepharose 4 Fast flow (GE Healthcare Bio-Science) was added to each sample, followed by incubation for 3 hours at 4° C. with rotation. […] RediPlate 96 EnzChek Tyrosine Phosphatase Assay kit (R-22067) was used for SHP-1 activity assay (Molecular Probes).

VEGFR1 = target: T3, VEGFR1 (Homo sapiens, UniProt P17948); test: VEGFR1 activity in HUVEC cells; format: cell-based; conditions: 24 h
T3 construct: we tested the effect of SC-49 on the activity of VEGFR1 in HUVEC cells; endogenous in cells; host or cells: HUVEC
Excerpt: To further investigate the effect of SC-49 on angiogenesis, we tested the effect of SC-49 on the activity of VEGFR1 in HUVEC cells.

Huh-7 xenograft tumor = test: Huh-7 xenograft with SC-59 or sorafenib and radiation; format: in vivo, mice; conditions: 10 mg/kg p.o. once daily plus 5 Gy radiation for 4 days
Protocol: (A) The effects of SC-59 and radiation on tumor growth. Each mouse was inoculated subcutaneously in the right leg with […] Huh-7 cells suspended in Matrigel. When the tumor reached a volume of 400-600 mm3, mice received vehicle, 5 Gy radiation (one fraction per day) for 4 days, or 10 mg/kg SC-59 p.o. once daily, or a combination for the duration of the study. The data points indicate the mean values (n=6) and the bars indicate the standard error. There were significant differences between the combined treatment group and the vehicle control group (*, P<0.05, **, P<0.01). (B) Left, the expression of P-STAT3 in the Huh-7 tumors was analyzed by western blot. Right, quantified data for p-STAT3 to STAT3. (C) The activity of SHP-1 in Huh-7 tumors. Values are means±SD, *, P<0.05. (D) Body weight of mice after SC-59 and RT treatment. […] The data points indicate the mean values (n=6) and the bars indicate the standard error. […] (H) Body weight of mice treated with vehicle, RT, sorafenib, and combination.
To further elucidate the molecular events responsible for this synergistic effect, we examined the expression level of p-STAT3 in the tumor extract.

[5] = Raf-1 immunoprecipitated from PLC5 or Hep3B cell extracts, 10 μM, 24 h

T1 sequence (P04049 whole entry): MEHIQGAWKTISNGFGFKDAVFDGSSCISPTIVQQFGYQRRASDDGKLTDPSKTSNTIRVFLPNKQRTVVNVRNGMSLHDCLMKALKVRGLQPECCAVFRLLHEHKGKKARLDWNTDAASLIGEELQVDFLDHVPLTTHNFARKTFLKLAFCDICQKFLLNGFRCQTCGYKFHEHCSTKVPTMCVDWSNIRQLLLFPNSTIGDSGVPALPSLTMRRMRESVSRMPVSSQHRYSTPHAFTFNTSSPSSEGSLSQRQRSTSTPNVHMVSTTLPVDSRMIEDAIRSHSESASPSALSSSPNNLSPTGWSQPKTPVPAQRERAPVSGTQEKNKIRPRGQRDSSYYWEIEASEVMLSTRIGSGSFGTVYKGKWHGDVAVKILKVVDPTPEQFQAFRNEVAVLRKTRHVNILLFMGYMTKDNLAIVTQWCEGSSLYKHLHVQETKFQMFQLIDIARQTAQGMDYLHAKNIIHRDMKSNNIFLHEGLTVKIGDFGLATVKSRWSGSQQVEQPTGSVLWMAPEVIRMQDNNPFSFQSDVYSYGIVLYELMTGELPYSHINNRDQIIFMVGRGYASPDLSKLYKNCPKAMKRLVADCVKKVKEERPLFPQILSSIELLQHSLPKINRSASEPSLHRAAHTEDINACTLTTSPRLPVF
SHP-1, sequence (P29350 whole entry): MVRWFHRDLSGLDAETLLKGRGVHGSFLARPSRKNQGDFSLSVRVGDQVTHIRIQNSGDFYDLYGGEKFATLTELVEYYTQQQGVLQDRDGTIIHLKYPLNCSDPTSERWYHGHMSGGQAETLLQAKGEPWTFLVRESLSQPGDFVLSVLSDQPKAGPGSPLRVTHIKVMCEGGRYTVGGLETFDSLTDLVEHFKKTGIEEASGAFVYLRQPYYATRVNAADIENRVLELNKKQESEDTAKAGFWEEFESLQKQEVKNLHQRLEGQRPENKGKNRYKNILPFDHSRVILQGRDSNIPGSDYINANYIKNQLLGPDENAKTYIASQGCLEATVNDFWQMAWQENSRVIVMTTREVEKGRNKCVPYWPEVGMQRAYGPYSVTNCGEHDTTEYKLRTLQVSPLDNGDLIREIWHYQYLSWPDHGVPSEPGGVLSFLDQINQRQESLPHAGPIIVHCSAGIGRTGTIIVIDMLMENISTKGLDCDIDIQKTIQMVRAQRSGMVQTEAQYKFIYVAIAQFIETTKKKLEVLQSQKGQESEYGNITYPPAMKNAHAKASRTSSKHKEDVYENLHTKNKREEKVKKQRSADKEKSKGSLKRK
T2 sequence (O60674 whole entry): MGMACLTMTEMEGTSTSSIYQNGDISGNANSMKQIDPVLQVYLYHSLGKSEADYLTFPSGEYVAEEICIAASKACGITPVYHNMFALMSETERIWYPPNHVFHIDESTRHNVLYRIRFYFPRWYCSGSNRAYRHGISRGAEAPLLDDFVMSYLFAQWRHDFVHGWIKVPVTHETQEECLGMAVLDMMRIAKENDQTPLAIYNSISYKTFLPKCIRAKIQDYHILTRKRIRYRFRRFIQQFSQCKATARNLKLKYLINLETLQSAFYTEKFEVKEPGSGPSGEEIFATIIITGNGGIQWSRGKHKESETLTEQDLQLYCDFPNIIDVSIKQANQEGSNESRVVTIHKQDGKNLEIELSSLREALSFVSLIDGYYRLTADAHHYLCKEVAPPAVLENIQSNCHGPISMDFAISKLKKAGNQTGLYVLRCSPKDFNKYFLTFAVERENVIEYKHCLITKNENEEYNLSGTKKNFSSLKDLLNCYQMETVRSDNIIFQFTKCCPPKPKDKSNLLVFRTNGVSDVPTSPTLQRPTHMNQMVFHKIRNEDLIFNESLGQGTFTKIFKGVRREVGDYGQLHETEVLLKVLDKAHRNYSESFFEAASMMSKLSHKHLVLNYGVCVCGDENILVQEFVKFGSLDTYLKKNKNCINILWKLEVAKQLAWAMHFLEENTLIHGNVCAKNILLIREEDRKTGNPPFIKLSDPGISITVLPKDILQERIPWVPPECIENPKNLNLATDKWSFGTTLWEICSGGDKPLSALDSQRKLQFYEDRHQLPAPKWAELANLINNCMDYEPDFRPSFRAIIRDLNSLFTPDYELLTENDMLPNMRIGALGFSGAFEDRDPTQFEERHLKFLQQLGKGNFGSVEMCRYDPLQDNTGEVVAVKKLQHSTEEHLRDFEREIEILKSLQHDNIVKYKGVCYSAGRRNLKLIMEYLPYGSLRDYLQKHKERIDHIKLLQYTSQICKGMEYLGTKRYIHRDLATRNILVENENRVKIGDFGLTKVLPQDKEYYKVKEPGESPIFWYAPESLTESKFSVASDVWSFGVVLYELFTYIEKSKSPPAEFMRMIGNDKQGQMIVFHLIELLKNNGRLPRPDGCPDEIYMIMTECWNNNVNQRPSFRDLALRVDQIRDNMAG
T3 sequence (P17948 27-1338): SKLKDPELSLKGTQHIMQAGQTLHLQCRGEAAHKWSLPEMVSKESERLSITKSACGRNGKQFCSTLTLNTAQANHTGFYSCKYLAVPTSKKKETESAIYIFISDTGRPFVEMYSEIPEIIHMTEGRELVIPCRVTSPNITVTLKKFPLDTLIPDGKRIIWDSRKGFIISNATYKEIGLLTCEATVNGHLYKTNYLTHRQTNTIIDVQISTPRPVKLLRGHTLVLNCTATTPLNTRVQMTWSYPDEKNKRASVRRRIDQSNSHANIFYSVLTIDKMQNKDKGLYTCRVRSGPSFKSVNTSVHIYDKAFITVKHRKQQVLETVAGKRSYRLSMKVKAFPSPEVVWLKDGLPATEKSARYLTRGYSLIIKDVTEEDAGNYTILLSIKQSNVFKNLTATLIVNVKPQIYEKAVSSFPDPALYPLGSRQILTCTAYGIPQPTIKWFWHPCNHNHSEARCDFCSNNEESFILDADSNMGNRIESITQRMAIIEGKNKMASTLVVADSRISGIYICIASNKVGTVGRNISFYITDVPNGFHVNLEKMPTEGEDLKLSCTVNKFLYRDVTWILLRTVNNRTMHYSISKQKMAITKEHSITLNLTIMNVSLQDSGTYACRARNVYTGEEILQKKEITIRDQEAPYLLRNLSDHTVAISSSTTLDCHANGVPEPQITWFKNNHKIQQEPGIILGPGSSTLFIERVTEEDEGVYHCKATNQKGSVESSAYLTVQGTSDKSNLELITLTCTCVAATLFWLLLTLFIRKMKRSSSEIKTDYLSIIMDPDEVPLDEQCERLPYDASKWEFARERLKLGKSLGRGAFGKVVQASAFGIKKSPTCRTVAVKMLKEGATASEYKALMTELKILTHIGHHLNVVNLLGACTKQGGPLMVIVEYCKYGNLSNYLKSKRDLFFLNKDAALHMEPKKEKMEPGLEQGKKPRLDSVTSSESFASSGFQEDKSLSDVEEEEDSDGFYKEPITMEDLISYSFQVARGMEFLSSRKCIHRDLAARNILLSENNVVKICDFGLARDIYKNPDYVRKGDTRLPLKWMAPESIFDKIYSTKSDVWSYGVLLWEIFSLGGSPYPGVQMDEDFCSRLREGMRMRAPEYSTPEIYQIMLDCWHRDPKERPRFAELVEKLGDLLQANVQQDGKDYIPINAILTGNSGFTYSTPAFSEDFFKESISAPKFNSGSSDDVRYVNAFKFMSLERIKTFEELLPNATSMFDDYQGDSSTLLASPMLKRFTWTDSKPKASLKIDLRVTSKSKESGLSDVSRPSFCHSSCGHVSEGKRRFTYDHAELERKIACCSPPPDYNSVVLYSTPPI

SMILES | IC50 (PLC5 cells) [µM] | activity of p-STAT3 by STAT3 ELISA (phospho-STAT3 (Tyr705)) | p-STAT3 and STAT3-related proteins (Western blot) [1] | kinase activity of JAK2 (JAK2) | SHP-1 activity in Huh-7 tumors (Huh-7 tumors; tumor extract) | apoptosis (sub-G1) (HCC cells [3]) | transcription activity of STAT3 (Luc reporter) (STAT3) | activity of SHP-1 in SHP-1 immunoprecipitates incubated with drug (SHP-1) | other results
N#Cc1ccc(Oc2ccc(NC(=O)Nc3ccc(Cl)c(C(F)(F)F)c3)cc2)cc1 [Compound 1, 1-(4-Chloro-3-(trifluoromethyl)phenyl)-3-(4-(4-cyanophenoxyl)phenyl)urea] | 7.5 | decreased the activity of p-STAT3 significantly | down-regulated p-STAT3 at Y705 residue and suppressed Mc1-1 and cyclin D1 | neither sorafenib nor SC-1 altered the kinase activity of JAK2 | induced significant rising of SHP-1 activity | showed a significant increase in sub-G1 phase population | transcription activity of STAT3 was significantly decreased | increase the activity of SHP-1 | Raf-1 activity versus vehicle control (Raf-1; PLC5 cells (FIG. 3)): showed the same Raf-1 activity as vehicle control; inhibition of Raf-1 activity (Raf-1; [5]): did not inhibit the activity of Raf-1; P-STAT3 state by ELISA (phospho-STAT3 (Tyr705); PLC5 cells, IL-6 stimulated, 10 uM, 24 h): showed a high degree of dephosphorylation of STAT3; also recorded: exhibited the same level of downregulation of P-STAT3 as sorafenib did; tumor size relative to vehicle-treated mice at the end of treatment (Huh-7 tumors; Huh-7 xenograft, 10 mg/kg p.o. once daily): 25%; p-STAT3 in Huh-7 tumors (Huh-7 tumors; tumor extract, Western blot): down regulated p-STAT3; viability of HCC cells / cytotoxicity (HCC cells [2]): decreased the viability of various HCC cells; growth of breast cancer and leukemia cell lines [4]: effective in inhibiting the growth of cancer cells; expression of p-VEGFR2 (Tyr1175) (p-VEGFR2 (Tyr1175)): did not have significant effect
CNC(=O)c1cc(Oc2ccc(NC(=O)Nc3ccc(Cl)c(C(F)(F)F)c3)cc2)ccn1 [Sorafenib, reference compound] | 8.3 | decreased the activity of p-STAT3 significantly | down-regulated p-STAT3 at Y705 residue and suppressed Mc1-1 and cyclin D1 | neither sorafenib nor SC-1 altered the kinase activity of JAK2 | showed significant induction of SHP-1 activity in vivo | showed a significant increase in sub-G1 phase population | transcription activity of STAT3 was significantly decreased | increase the activity of SHP-1 | inhibition at 5 µM (Raf-1; PLC5, read-out: inhibition of Raf-1 kinase activity of the untreated cells): 50%; reduction in Raf-1 kinase activity (Raf-1; [5]): 20-40%; Huh-7 tumor size / growth versus control (Huh-7 tumors; 10 mg/kg/day orally): less than half that of control mice; body weight or toxicity (Huh-7 tumors; mouse, in vivo, po, 10 mg/kg/day): no apparent differences in body weight or toxicity; SHP-1 activity in Huh-7 tumors (Huh-7 tumors; tumor extract, listed as sorafenib): enhanced the activity of SHP-1 in Huh-7 tumours; viability of HCC cells / cytotoxicity (HCC cells [2]; HCC cell lines, 72 h, MTT): decreased the viability of various HCC cells; activity of VEGFR1 (VEGFR1): significantly inhibited the activity of VEGFR1 in HUVEC cells; tumor growth with radiotherapy combination (Huh-7 xenograft tumor): did not display a better synergistic effect when used in combination with radiotherapy
